Experimental findings from US6949679B1, “Polyamine transport inhibitors” (Universite Laval, priority 1998, dated 2005) are described below.

The inhibition is the percentage by which the read-out fell short of the control. For orientation: IC50 means the concentration that inhibits the measured activity by half. Read a low IC50 as higher potency.

Data set [1] concerns ZR-75-1 cells. The data set is described as follows: Reversal of DFMO-induced growth inhibition by exogenous spermidine. The class given is cell-based, human. Particulars: Homo sapiens, ZR-75-1, 264 h; 1 mM DFMO, 11-day incubation. On the procedure:
(§1) For growth studies, ZR-75-1 cells were cultured in MEZR medium or in phenol red-free RPMI 1640 supplemented with 2 mM L-glutamine, 1 mM sodium pyruvate, 15 mM Hepes, antibiotics, 1 nM 17β-estradiol, 0.5 μg of bovine insulin per ml and 5% (v/v) charcoal-treated fetal bovine serum (SD medium), as indicated in the text. When polyamines or polyamine analogs were added to serum-containing media, 1 mM aminoguanidine was added to inhibit bovine serum amine oxidase (BSAO) activity (Morgan, D. M. L. 1989, in The Physiology of Polyamines (Bachrach, U., and Heimer, Y. M. eds) Vol. I, pp. 203-229, CRC Press, Boca Raton). The effect of the transport inhibitors on cell growth was measured by incubating ZR-75-1 cells for 11 days in medium supplemented with antagonist, polyamines and/or 1 mM DFMO as indicated, followed by colorimetric determination of DNA content with 3,4-diaminobenzoic acid (Simard, J., Dauvois, S., Haagensen, D. E., Lėvesque C., Mėrand, Y. and Labriė, F. 1990. Endocrinology 126: 3223-3231).
This possibility was assessed by comparing the ability of DESC to prevent the reversal of DFMO-induced growth inhibition by increasing concentrations of exogenous spermidine.

The test system of data set [2] is polyamine transporter. The data set is described as follows: Inhibition of [3H]putrescine uptake in ZR-75-1 cells. The class given is cell-based, human. Particulars: ZR-75-1 cells, FIG. 32; 20 μM and 3 μM substrate, respectively; read-out: Apparent Ki, putrescine uptake. On the procedure: (§2) The rate of putrescine and spermidine transport was determined in ZR-75-1 cells incubated in serum-free RPMI 1640 medium as described (Lessard, M., Zhao, C., Singh, S. M. and Poulin, R. 1995. J. Biol. Chem. 270: 1685-1694), using [^3H]putrescine (30 Ci/mol) and [^3H]spermidine (20 Ci/mol), respectively as substrates for a 20 minute-assay period. Spermine uptake was similarly determined, using 1 μM [^14C]spermine (32 Ci/mol) as substrate. Uptake activity was expressed per amount of DNA as fluorometrically determined using 3,4-diaminobenzoic acid (Simard, J., Dauvois, S., Haagensen, D. E., Lėvesque, C., Mėrand, Y. and Labrie, F. 1990. Endocrinology, 126: 3223-3231). For the determination of spermidine uptake activity in CHO-K1 cells, 80% confluent cell monolayers were rinsed twice with PBS and incubated for 20 minutes at 37° C. in 400 μl of buffer A (20 mM Tris-HCl, pH 7.4; 0.42 mM CaCl2; 0.41 mM MgSO4; 103 mM NaCl; 5.7 mM KCl; 1.1 mM D-glucose) containing 5 μM [^3H]spermidine (20 Ci/mol). Cell cultures were then washed twice with 1 ml PBS containing 5.7 mM sym-norspermidine. Cells were then lysed with 200-μl aliquot of 1 N NaOH and incubated for 30 minutes at 60° C. After neutralization with 200 μl of 1 N HCl, radioactivity was determined from a 250-μl of the cell lysate by scintillation counting. Uptake activity was expressed per amount of total cellular protein as determined by the method of Bradford (Bradford, M. M. 1976. Anal. Biochem. 72: 248-254). Non-specific binding of radioactive substrate was similarly determined in parallel for both cell lines after a 15 second-incubation with 400 μl of ice-cold uptake solution.
(§3) Kinetic analysis of polyamine transport was performed by determining uptake activity in the presence of a 3 μM [^3H]putrescine or 1 μM [^3H]spermidine plus increasing concentrations of nonradioactive substrate. K[…] Ki and Vmax values were then estimated by Lineweaver-Burke analysis. For competitive inhibitors, Ki values were also estimated by measuring uptake activity in the presence of logarithmically increasing concentrations of antagonist, and using the Cheng-Prusoff equation (Cheng, Y.-C. and Prusoff, W. H. 1973. Biochem. Pharmacol. 22: 3099-3108) by iterative curve fitting for a sigmoidal curve. For mixed competitive/noncompetitive inhibition, two methods were used to calculate kinetic constants. First, the equation [drawing 2] where v, s, and i are the transport velocity, substrate concentration and inhibitor concentration respectively, was used to calculate the inhibition constants for inhibitor/carrier complex formation (Ki) and carrier/inhibitor/substrate complex formation (Ki′) (Dixon, M. and Webb, E. C. 1976. Enzymes, 3rd Ed., Academic Press, San Diego, Calif.). Alternatively, the value of Ki for a mixed competitor/non-competitor was estimated from the intersect of equations v^−1 vs i at two different substrate concentrations (Dixon, M. and Webb, E. C. 1976. Enzymes, 3rd Ed., Academic Press, San Diego, Calif.). Intracellular Accumulation
(§4) In order to evaluate the effectiveness of dimeric triamines as polyamine transport inhibitors, we synthesized N,N′-bis(3-aminopropyl),N,N′-bis(4-aminobutyl)cystamine or BABAC (structure 1, FIG. 25; FIG. 31), and its thiol form N-(3-aminopropyl),N-(4-aminobutyl)cysteamine or AAC (FIG. 31) according to Scheme 4 described above (FIG. 30), using spermidine as a precursor polyamine. The ability of BABAC and AAC to inhibit the intracellular uptake of radio-labeled putrescine and spermidine in the ZR-75-1 human breast cancer cell line was then determined according to standard published procedures (Lessard, et al. and Poulin, et al.) Briefly, ZR-75-1 cells were grown for four days in twenty-four well plates in RPMI 1640 medium supplemented with 10% fetal bovine serum.

The subject of data set [3] is polyamine transporter. Nature of the data set: Inhibition of [3H]spermidine uptake in ZR-75-1 cells. The class given is cell-based, human. Particulars: FIG. 32, 20 μM and 3 μM substrate, respectively, read-out: Apparent Ki, spermidine uptake. On the procedure: as §2
as §3, with “Alternatively, the value of Ki for a mixed competitor/non-competitor was estimated from the intersect of equations v^−1 vs i at two different substrate concentrations (Dixon, M. and Webb, E. C. 1976. Enzymes, 3rd Ed., Academic Press, San Diego, Calif.). Intracellular Accumulation” left out
as §4

Data set [4] concerns polyamine transporter. Nature of the data set: Inhibition of [14C]spermine uptake in ZR-75-1 cells. The class given is cell-based, human. Particulars: FIG. 32, read-out: Apparent Ki, spermine uptake. On the procedure: as §2, with “Spermine uptake was similarly determined, using 1 μM [^14C]spermine (32 Ci/mol) as substrate.” left out
as §3, §4

Data set [5] in a line: in vitro. Particulars: human.
Text: FIG. 34 represents the relative cytotoxicity of sym-norspermidine (NSpd), BABAC and TADAX in ZR-75-1 human breast cancer cells. Data are the mean±SD of triplicate determinations from a representative experiment.
In data set [6] the test system is ZR-75-1 cells. The data set is described as follows: Time course of intracellular [3H]spermidine accumulation in presence of transport antagonists. The class given is cell-based, human. The following applies: 200 μM CHX, after 4 hours. On the procedure:
The time course of intracellular accumulation of spermidine in the presence of transport antagonists was determined by incubating ZR-75-1 cells in 24-well plates with DESC (50 or 200 μM) or MESC (200 μM) in dissolved in MEZR medium containing 5 μM [^3H]spermidine in the presence or absence of cycloheximide (CHX, 200 μM), and harvesting at the indicated times for the determination of intracellular radioactive contents, as described above for polyamine uptake assays.

Data set [7] deals with polyamine transporter. Nature of the data set: Inhibition of [3H]spermidine uptake in CHO-K1 cells. The class given is cell-based, Chinese hamster. Particulars: MESC thioether derivatives. On the procedure: To 1 ml of an extemporaneously prepared, DTT-free solution of MESC (20 mM in […]) were added 50 μl of 50 mM Tris-HCl (pH 7.0) and 105 μl of a 40 mM solution of either iodoacetamide, LY iodoacetamide or ASIB in a light-protected microcentrifuge tube, and the mixture was incubated for 2 hours at 37° C. […] Excess iodoacetamide was then inactivated by adding DTT to a final concentration of 40 mM and incubating the solution for 2 hours at 37° C. […] The effect of the respective DTT-inactivated iodoacetamide on spermidine transport was determined in parallel by incubating cells with the same reaction mixture from which MESC was omitted. […] J. Biol. […] Cells were then lysed with 200-μl aliquot of 1 N NaOH and incubated for 30 minutes at 60° C. After neutralization with 200 μl of 1 N HCl, radioactivity was determined from a 250-μl of the cell lysate by scintillation counting. Uptake activity was expressed per amount of total cellular protein as determined by the method of Bradford (Bradford, M. M. 1976. Anal. Biochem. 72: 248-254). […] K[…] Ki and Vmax values were then estimated by Lineweaver-Burke analysis. For competitive inhibitors, Ki values were also estimated by measuring uptake activity in the presence of logarithmically increasing concentrations of antagonist, and using the Cheng-Prusoff equation (Cheng, Y.-C. and Prusoff, W. H. 1973. Biochem. Pharmacol. 22: 3099-3108) by iterative curve fitting for a sigmoidal curve. For mixed competitive/noncompetitive inhibition, two methods were used to calculate kinetic constants. […] C. 1976. Enzymes, 3rd Ed., Academic Press, San Diego, Calif.). […] C. 1976. Enzymes, 3rd Ed., Academic Press, San Diego, Calif.). Intracellular Accumulation

Data set [8] relates to ZR-75-1 cells. The data set is described as follows: Effect on ZR-75-1 cell proliferation (11 days, DNA content). Particulars: 1 mM. The class given is cell-based, human. On the procedure:
as §1, with “3223-3231). Medium was changed every other day in these experiments because of the slow reaction of the compound with an unknown component present in the IMEM and RPMI 1640 medium formulation.” for “3223-3231).”
The biocompatibility of DESC, MESC, and DEASC was thus evaluated during a long-term (11-day) incubation with ZR-75-1 cells grown in RPMI 1640 containing 10% (v/v) FBS in the absence and presence of 1 mM aminoguanidine. […] Weak growth inhibition caused by the mixed MESC-cysteamine disulfide, however, apparently involved degradation by a copper amine oxidase.

Each structure is given as a SMILES string.

With `NCCCC(N)(C(=O)O)C(F)F` (racemic) [DFMO, D,L-α-difluoromethylornithine], in data set [1], the inhibition at 1000 µM is roughly 50%. As to `NCCCCN(CCS)CCCN` [AAC, N-(3-aminopropyl),N-(4-aminobutyl)cysteamine], the Ki in data set [2] is 0.54 µM; in data set [3], 4.37 µM; in data set [4], 3.9 µM.

Turning to `NCCCCN(CCCN)CCSSCCN(CCCN)CCCCN` [BABAC, N,N′-bis(3-aminopropyl),N,N′-bis(4-aminobutyl)cystamine], the Ki in data set [2] turned out to be 0.15 µM; in data set [3], 0.68 µM; in data set [4], 2.1 µM. This compound also gave an IC50 in data set [5] (ZR-75-1 cells) of 17 µM. For the compound `C[C@@H]1C[C@@H]([C@H](O)CC2CC(=O)NC(=O)C2)C(=O)[C@@H](C)C1` [CHX, cycloheximide, reference compound], in data set [6], the “Increase in spermidine accumulation” value was 4 fold. Turning to `[N-]=[N+]=Nc1ccc(C(=O)NCCCCNC(=O)CSCCNC(=O)C(CCCNCCCN)NCCCN)c(O)c1` (centres unmarked) [MESC-ASIB], the “Ki toward spermidine uptake compared with MESC” value in data set [7] was “virtually identical to that of MESC”. Same read-out and setting: the entry for `NCCCNCCCC(NCCCN)C(=O)NCCSCC(=O)NCCN1C(=O)c2cc(S(=O)(=O)O)cc3c(N)c(S(=O)(=O)O)cc(c23)C1=O` (centres unmarked) [MESC-LY] is “virtually identical to that of MESC”. Still for that read-out and setting: the entry for `NCCCNCCCC(NCCCN)C(=O)NCCSCC(N)=O` (centres unmarked) [MESC-acetamide] is “virtually identical to that of MESC”. Turning to `N=C(N)NN` [aminoguanidine, reference compound], the “Effect of aminoguanidine alone on cell growth” value in data set [8] is listed as “slight inhibitory effect”. For the compound `NCCCNCCCN` [sym-norspermidine, N-(3-aminopropyl)-1,3-diaminopropane, reference compound], half-maximal inhibition in data set [5] (IC50) required 6.4 µM.
